# Where “and” joins values, the source holds several entries; their conditions need not be identical. Equal values may be shown once.
# Tests used:
# [1] = system: amphotropic murine leukemia virus; assay: AMLV pseudotyped virus entry counter-screen, same infection protocol; format: cell-based; details: for luciferase units, AMLV entry: duplicates; for AMLVpp % inh: peptide library screen, cell entry inhibition vs uninhibited control
# Experimental: Infection of hepatoma cell lines with HCV pseudotype particles and screen for inhibitory peptides. The hepatoma cells, Huh7, was seeded at 8000 cells in 90 ul medium in 96-well plate. In the case of the inhibitor screen, the inhibitor was incubated with cells for one hour at 37° C. and then 50 ul viral supernatant was added to the cells 24 hours after seeding. The viral stock was pre-tittered and diluted to yield approximately 10,000 to 20,000 RLU. The cells were incubated at 37° C. with 5% CO2 for additional 72 hours and were harvested for luciferase assay. Peptide stocks were prepared in 100% DMSO at 10 mg/ml and were first screened at 100 ug/ml and then a dose responsive curve was generated with 10 points 3-fold titration starting from 100 ug/ml.
# The specificity of the peptides were counter-screened with AMLV and HIV pseudotyped viruses using the same infection protocol.
# HCV pseudoparticles = assay: HCV pseudoparticle (HCVpp) entry assay in Huh7 hepatoma cells, luciferase readout; format: cell-based, hepatitis C virus; details: for luciferase units, HCV entry: duplicates; for % of control at ~30 uM: percentage of hepatitis C virus cellular entry at 30 μM peptide vs uninhibited control; for HCVpp % inh: peptide library screen, first screened at 100 ug/ml, cell entry inhibition vs uninhibited control
# Procedure, shortened: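 Pseudoparticles carrying HCV E1/E2 on an HIV luciferase backbone were produced in 293T cells; peptide was pre-incubated 1 h at 37 °C with Huh7 cells, then virus added and luciferase read after 72 h. Dose-response used 10-point 3-fold titration from 100 ug/ml; envelope-less particles controlled non-specific entry.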
# [2] = 0.01371742 uM of peptide (three lines)
# [3] = 0.1 nM of peptide (printed for three rows), two values per peptide and row
# [4] = 0.3 nM of peptide, two values per peptide
# [5] = 1 nM of peptide, two values per peptide
# [6] = 3 nM of peptide, two values per peptide
# [7] = 10 nM of peptide, two values per peptide
# [8] = 30 nM of peptide, two values per peptide
# [9] = 100 nM of peptide, two values per peptide
# [10] = 300 nM of peptide, two values per peptide
# [11] = 10000 nM of peptide, two values per peptide
# [12] = 30000 nM of peptide, two values per peptide
substance,measurement,setting,value
A-I-K-W-E-Y-V-L-L-F-L-L-L [SEQ ID NO: 98],"luciferase units, AMLV entry",[1]; [2],44492 luciferase units and 44531 luciferase units and 47406 luciferase units and 49869 luciferase units and 51067 luciferase units and 61382 luciferase units
same,"luciferase units, AMLV entry",[1]; 0.04115226 uM of peptide,41463 luciferase units and 41610 luciferase units
same,"luciferase units, AMLV entry",[1]; 0.1234568 uM of peptide,45455 luciferase units and 45030 luciferase units
same,"luciferase units, AMLV entry",[1]; 0.3703704 uM of peptide,42748 luciferase units and 48710 luciferase units
same,"luciferase units, AMLV entry",[1]; 1.111111 uM of peptide,45508 luciferase units and 44147 luciferase units
same,"luciferase units, AMLV entry",[1]; 3.333333 uM of peptide,59984 luciferase units and 48300 luciferase units
same,"luciferase units, AMLV entry",[1]; 10 uM of peptide,111324 luciferase units and 59835 luciferase units
same,"luciferase units, AMLV entry",[1]; 30 uM of peptide,81103 luciferase units and 70832 luciferase units
same,"% control (HCVpp entry), proline scanning",HCV pseudoparticles; [3],85 % control and 77 % control and 86 % control and 109 % control and 95 % control
same,"% control (HCVpp entry), proline scanning",HCV pseudoparticles; [4],90 % control and 68 % control
same,"% control (HCVpp entry), proline scanning",HCV pseudoparticles; [5],93 % control and 94 % control
same,"% control (HCVpp entry), proline scanning",HCV pseudoparticles; [6],86 % control and 52 % control
same,"% control (HCVpp entry), proline scanning",HCV pseudoparticles; [7],47 % control and 50 % control
same,"luciferase units, HCV entry",HCV pseudoparticles; [2],9747 luciferase units and 12623 luciferase units and 16027 luciferase units and 17299 luciferase units and 19079 luciferase units and 17575 luciferase units
same,"% control (HCVpp entry), proline scanning",HCV pseudoparticles; [8],41 % control and 35 % control
same,"luciferase units, HCV entry",HCV pseudoparticles; 0.04115226 uM of peptide,6486 luciferase units and 6677 luciferase units
same,"% control (HCVpp entry), proline scanning",HCV pseudoparticles; [9],31 % control and 41 % control
same,"luciferase units, HCV entry",HCV pseudoparticles; 0.1234568 uM of peptide,4583 luciferase units and 6873 luciferase units
same,"% control (HCVpp entry), proline scanning",HCV pseudoparticles; [10],21 % control and 29 % control
same,"luciferase units, HCV entry",HCV pseudoparticles; 0.3703704 uM of peptide,2830 luciferase units and 5272 luciferase units
same,"luciferase units, HCV entry",HCV pseudoparticles; 1.111111 uM of peptide,3285 luciferase units and 2555 luciferase units
same,"luciferase units, HCV entry",HCV pseudoparticles; 3.333333 uM of peptide,2647 luciferase units and 2056 luciferase units
same,"luciferase units, HCV entry",HCV pseudoparticles; 10 uM of peptide,2186 luciferase units and 2352 luciferase units
same,"% control (HCVpp entry), proline scanning",HCV pseudoparticles; [11],27 % control and 24 % control
same,"luciferase units, HCV entry",HCV pseudoparticles; 30 uM of peptide,1938 luciferase units and 2251 luciferase units
same,% of control at ~30 uM,HCV pseudoparticles,10%
V-D-L-L-V-G-A-A-A-L-C-S-A-M-Y-V [SEQ ID NO: 13],AMLVpp % inh,[1],−13%
same,HCVpp % inh,HCV pseudoparticles,39%
T-R-P-P-Q-G-N-W-F-G-C-T-W-M-N-S [SEQ ID NO: 53],AMLVpp % inh,[1],−42%
same,HCVpp % inh,HCV pseudoparticles,59%
S-C-S-P-I-D-A-F-A-Q-G-W-G-P-I-T [SEQ ID NO: 41],AMLVpp % inh,[1],25%
same,HCVpp % inh,HCV pseudoparticles,−11%
"A-I-K-W-E-A-V-L-L-L-F-L-L (AIKWEAVLLLFLL; HCV peptide) [SEQ ID NO: 91, Ala-scan]","% control (HCVpp entry), alanine scanning",HCV pseudoparticles; [3],101 % control and 73 % control and 107 % control and 89 % control and 93 % control and 111 % control
same,"% control (HCVpp entry), alanine scanning",HCV pseudoparticles; [4],81 % control and 84 % control
same,"% control (HCVpp entry), alanine scanning",HCV pseudoparticles; [5],120 % control and 102 % control
same,"% control (HCVpp entry), alanine scanning",HCV pseudoparticles; [6],86 % control and 110 % control
same,"% control (HCVpp entry), alanine scanning",HCV pseudoparticles; [7],59 % control and 66 % control
same,"% control (HCVpp entry), alanine scanning",HCV pseudoparticles; [8],49 % control and 48 % control
same,"% control (HCVpp entry), alanine scanning",HCV pseudoparticles; [9],35 % control and 32 % control
same,"% control (HCVpp entry), alanine scanning",HCV pseudoparticles; [10],17 % control and 27 % control
same,"% control (HCVpp entry), alanine scanning",HCV pseudoparticles; [11],30 % control and 15 % control
same,"% control (HCVpp entry), alanine scanning",HCV pseudoparticles; [12],12 % control and 18 % control
same,% of control at ~30 uM,HCV pseudoparticles,16%
A-I-K-W-E-P-V-L-L-L-F-L-L (AIKWEPVLLLFLL; HCV peptide) [SEQ ID NO: 120],"% control (HCVpp entry), proline scanning",HCV pseudoparticles; [3],82 % control and 78 % control and 102 % control and 80 % control and 101 % control and 117 % control
same,"% control (HCVpp entry), proline scanning",HCV pseudoparticles; [4],90 % control and 75 % control
same,"% control (HCVpp entry), proline scanning",HCV pseudoparticles; [5],91 % control and 75 % control
same,"% control (HCVpp entry), proline scanning",HCV pseudoparticles; [6],66 % control and 76 % control
same,"% control (HCVpp entry), proline scanning",HCV pseudoparticles; [7],73 % control and 76 % control
same,"% control (HCVpp entry), proline scanning",HCV pseudoparticles; [8],72 % control and 40 % control
same,"% control (HCVpp entry), proline scanning",HCV pseudoparticles; [9],39 % control
same,"% control (HCVpp entry), proline scanning",HCV pseudoparticles; [10],33 % control and 39 % control
same,"% control (HCVpp entry), proline scanning",HCV pseudoparticles; [11],24 % control
same,"% control (HCVpp entry), proline scanning",HCV pseudoparticles; [12],38 % control and 42 % control

# — patent US20100119483A1, “PEPTIDE VIRAL ENTRY INHIBITORS” (Schering Corporation, priority 2004, published 2010)
